Values of other authors, collected in patent US20120058932A1, “ACTIVE INGREDIENT-PEPTIDE CONSTRUCT FOR EXTRACELLULAR CONCENTRATION” (MAX PLANCK-GESELLSCHAFT ZUR FORDERUNG DER WISSENSCHAFTEN …, priority 2008, published 2012).

Details: blood cells vs plasma

- Concentration in blood cells relative to the surrounding plasma: approximately 8 ×
SMILES: C/C=C/C[C@@H](C)[C@@H](O)[C@H]1C(=O)N[C@@H](CC)C(=O)N(C)CC(=O)N(C)[C@@H](CC(C)C)C(=O)N[C@@H](C(C)C)C(=O)N(C)[C@@H](CC(C)C)C(=O)N[C@@H](C)C(=O)N[C@H](COCCO)C(=O)N(C)[C@@H](CC(C)C)C(=O)N(C)[C@@H](CC(C)C)C(=O)N(C)[C@@H](C(C)C)C(=O)N1C [SDZ IMM 125]
